According to patent US20130244999A1, “Substituted Heterocyclic Compounds” (Incyte Corporation, priority 2008, published 2013):

Target: T1, histamine H4 receptor (Homo sapiens, UniProt Q9H3N8)
T1 construct: expressed in transfected cells; host or cells: HEK293SFM cells (membrane preparation)
Assay: Inhibition of histamine H4 receptor (Table A1; H4 membrane binding assay)
Settings: histamine H4 receptor; "> a" = exceeds experiment limit
Experimental: Recombinant HEK293SFM cells expressing human H1, H2, H3, H4 or mouse H4 were harvested (Packard Filtermate Harvester) in ice-cold Tris-HCl, (50 mM, pH 7.5, Sigma) with protease inhibitors (Roche) and homogenized with a Polytron homogenizer. The homogenate was centrifuged for 5 minutes at 1000 g to remove nuclei and unbroken cells. The supernatant was centrifuged at 50000 g for 30 minutes, and the resulting pellet was re-suspended in ice-cold Tris-HCl (50 mM, pH 7.5). […] Nonspecific binding was determined by inclusion of 1000× unlabeled ligands. The bound radioactivity was separated by filtration through polyethyleneimine-treated GF/B filters (Perkin Elmer). The filters were washed eight times with ice-cold Tris-HCl (50 mM, pH 7.5), and radioactivity retained on the filters was measured by liquid scintillation counting. The binding data were evaluated with Prism. […]

Row | SMILES | IC50 [nM]
1 | CN1CCN(c2cc(N3CCc4ccc(-c5ccn(C)c(=O)c5)cc4C3)nc(N)n2)CC1 [Example 43, 4-{2-[2-Amino-6-(4-methylpiperazin-1-yl)pyrimidin-4-yl]-1,2,3,4-tetrahydroisoquinolin-7-yl}-1-methylpyridin-2(1H)-one] | 99
2 | Cc1cccc(Nc2ccc3c(c2)CN(c2cc(N4CCN(C)CC4)nc(N)n2)CC3)n1 [Example 16, 2-[2-Amino-6-(4-methylpiperazin-1-yl)pyrimidin-4-yl]-N-(6-methylpyridin-2-yl)-1,2,3,4-tetrahydroisoquinolin-7-amine] | 543
3 | CNC(=O)c1ncc(-c2ccc3c(c2)CN(c2cc(N4CCN(C)CC4)nc(N)n2)CC3)cc1C [Example 45, 5-{2-[2-Amino-6-(4-methylpiperazin-1-yl)pyrimidin-4-yl]-1,2,3,4-tetrahydroisoquinolin-7-yl}-N,3-dimethylpyridine-2-carboxamide] | 106
4 | CC1Cc2ccc(-c3cnn(CCF)c3)cc2CN1c1cc(N2CCN(C)CC2)nc(N)n1 (single isomer, unassigned) [Example 100, 4-[7-[1-(2-fluoroethyl)-1H-pyrazol-4-yl]-3-methyl-3,4-dihydroisoquinolin-2(1H)-yl]-6-(4-methylpiperazin-1-yl)pyrimidin-2-amine] | 20
5 | CN1CCN(c2cc(N3CCc4ccc(C(=O)N5CCCC5)cc4C3)nc(N)n2)CC1 [Example 29, 4-(4-Methylpiperazin-1-yl)-6-[7-(pyrrolidin-1-ylcarbonyl)-3,4-dihydroisoquinolin-2 (1H)-yl]pyrimidin-2-amine] | 229
6 | CC1Cc2ccc(-c3cc(C(=O)N(C)CCN(C)C)n(C)c3)cc2CN1c1cc(N2CCN(C)CC2)nc(N)n1 (single isomer, unassigned) [Example 93, 4-{2-[2-Amino-6-(4-methylpiperazin-1-yl)pyrimidin-4-yl]-3-methyl-1,2,3,4-tetrahydroisoquinolin-7-yl}-N-[2-(dimethylamino)ethyl]-N,1-dimethyl-1H-pyrrole-2-carboxamide] | 24
7 | CC1Cc2ccc(-c3cnn(C)c3)cc2CN1c1cc(N2CCCN(C)CC2)nc(N)n1 (stereo not shown) [Example 125, 4-(4-Methyl-1,4-diazepan-1-yl)-6-[3-methyl-7-(1-methyl-1H-pyrazol-4-yl)-3,4-dihydroisoquinolin-2(1H)-yl]pyrimidin-2-amine] | 56
8 | CC1Cc2ccc(-c3cnn(C)c3)cc2CN1c1cc(N2CCN3CCCC3C2)nc(N)n1 (stereo not shown) [Example 126, 4-(Hexahydropyrrolo[1,2-a]pyrazin-2(1H)-yl)-6-[3-methyl-7-(1-methyl-1H-pyrazol-4-yl)-3,4-dihydroisoquinolin-2(1H)-yl]pyrimidin-2-amine] | 66
9 | CC(=O)N1CCC(c2ccc3c(c2)CN(c2cc(N4CCN(C)CC4)nc(N)n2)C(C)C3)CC1 (stereo not shown) [Example 146, 4-[7-(1-Acetylpiperidin-4-yl)-3-methyl-3,4-dihydroisoquinolin-2 (1H)-yl]-6-(4-methylpiperazin-1-yl)pyrimidin-2-amine] | 22.8
10 | CN1CCN(c2cc(N3CCc4ccc(N5CCC(c6ccn(C)c(=O)c6)CC5)cc4C3)nc(N)n2)CC1 [Example 41, 4-(1-{2-[2-Amino-6-(4-methylpiperazin-1-yl)pyrimidin-4-yl]-1,2,3,4-tetrahydroisoquinolin-7-yl}piperidin-4-yl)-1-methylpyridin-2(1H)-one] | 38
11 | CC1Cc2ccc(-c3ccc(C(=O)N(C)C)nc3)cc2CN1c1cc(N2CCN(C)CC2)nc(N)n1 (single isomer, unassigned) [Example 50A, 5-(2-(2-amino-6-(4-methylpiperazin-1-yl)pyrimidin-4-yl)-3-methyl-1,2,3,4-tetrahydroisoquinolin-7-yl)-N,N-dimethylpicolinamide] | 88.7
12 | CC1Cc2ccc(-c3ccc4c(c3)NC(=O)CO4)cc2CN1c1cc(N2CCN(C)CC2)nc(N)n1 (stereo not shown) [Example 131, 6-{2-[2-amino-6-(4-methylpiperazin-1-yl)pyrimidin-4-yl]-3-methyl-1,2,3,4-tetrahydroisoquinolin-7-yl}-2H-1,4-benzoxazin-3(4H)-one] | 30
13 | CN1CCN(c2cc(N3Cc4ccccc4CC3=O)nc(N)n2)CC1 [Example 23, 2-[2-Amino-6-(4-methylpiperazin-1-yl)pyrimidin-4-yl]-1,4-dihydroisoquinolin-3(2H)-one] | 158
14 | CC1Cc2ccc(-c3ccnc(C(=O)N4CCN(C)CC4)c3)cc2CN1c1cc(N2CCN(C)CC2)nc(N)n1 (single isomer, unassigned) [Example 70, 4-[3-Methyl-7-{2-[(4-methylpiperazin-1-yl)carbonyl]pyridin-4-yl}-3,4-dihydroisoquinolin-2(1H)-yl]-6-(4-methylpiperazin-1-yl)pyrimidin-2-amine] | 86
15 | CC1Cc2ccc(C3CCN(C(=O)N(C)C)CC3)cc2CN1c1cc(N2CCN(C)CC2)nc(N)n1 (stereo not shown) [Example 144, 4-{2-[2-Amino-6-(4-methylpiperazin-1-yl)pyrimidin-4-yl]-3-methyl-1,2,3,4-tetrahydroisoquinolin-7-yl}-N,N-dimethylpiperidine-1-carboxamide] | 24
16 | CN1CCN(c2cc(N3CCc4ccc(-n5cc(Cl)cn5)cc4C3)nc(N)n2)CC1 [Example 14, 4-[7-(4-Chloro-1,1-pyrazol-1-yl)-3,4-dihydroisoquinolin-2(1H)-yl]-6-(4-methylpiperazin-1-yl)pyrimidin-2-amine] | 223
17 | CC1Cc2ccc(-c3ccc(C(=O)N4CC(C#N)C4)nc3)cc2CN1c1cc(N2CCN(C)CC2)nc(N)n1 (single isomer, unassigned) [Example 54B, 1-[(5-{2-[2-amino-6-(4-methylpiperazin-1-yl)pyrimidin-4-yl]-3-methyl-1,2,3,4-tetrahydroisoquinolin-7-yl}pyridin-2-yl)carbonyl]azetidine-3-carbonitrile] | 48
18 | CC1Cc2ccc(-c3cnn(C)c3)cc2CN1c1cc(N2CC3CC2CN3)nc(N)n1 (stereo not shown) [Example 123, 4-(2,5-Diazabicyclo[2.1.1]hept-2-yl)-6-[3-methyl-7-(1-methyl-1H-pyrazol-4-yl)-3,4-dihydroisoquinolin-2(1H)-yl]pyrimidin-2-amine] | 124
19 | CC1Cc2ccc(-c3cnn(CCC(N)=O)c3)cc2CN1c1cc(N2CCN(C)CC2)nc(N)n1 (single isomer, unassigned) [Example 114, 3-(4-{2-[2-Amino-6-(4-methylpiperazin-1-yl)pyrimidin-4-yl]-3-methyl-1,2,3,4-tetrahydroisoquinolin-7-yl}-1H-pyrazol-1-yl)propanamide] | 34
20 | CCNC(=O)c1ncc(-c2ccc3c(c2)CN(c2cc(N4CCN(C)CC4)nc(N)n2)C(C)C3)cn1 (single isomer, unassigned) [Example 77, 5-{2-[2-Amino-6-(4-methylpiperazin-1-yl)pyrimidin-4-yl]-3-methyl-1,2,3,4-tetrahydroisoquinolin-7-yl}-N-ethylpyrimidine-2-carboxamide] | 149
21 | CCNC(=O)N1CCC(c2ccc3c(c2)CN(c2cc(N4CCN(C)CC4)nc(N)n2)C(C)C3)CC1 (stereo not shown) [Example 145, 4-{2-[2-Amino-6-(4-methylpiperazin-1-yl)pyrimidin-4-yl]-3-methyl-1,2,3,4-tetrahydroisoquinolin-7-yl}-N-ethylpiperidine-1-carboxamide] | 36

Continued, values first:

Row | IC50 [nM] | SMILES
22 | 50 | CC1Cc2ccc(-c3ccnc(C(=O)N4CCC(N(C)C)C4)c3)cc2CN1c1cc(N2CCN(C)CC2)nc(N)n1 (single isomer, unassigned) [Example 67B, 4-[7-(2-{[3-(dimethylamino)pyrrolidin-1-yl]carbonyl}pyridin-4-yl)-3-methyl-3,4-dihydroisoquinolin-2(1H)-yl]-6-(4-methylpiperazin-1-yl)pyrimidin-2-amine]
23 | 79 | CC1Cc2ccc(-c3ccnc(C(=O)N4CC[C@H](O)C4)c3)cc2CN1c1cc(N2CCN(C)CC2)nc(N)n1 (single isomer, unassigned) [Example 65B]
24 | 47 | CC1Cc2ccc(-c3ccnc(C(=O)N4CC(C#N)C4)c3)cc2CN1c1cc(N2CCN(C)CC2)nc(N)n1 (single isomer, unassigned) [Example 63B, 1-[(4-{2-[2-amino-6-(4-methylpiperazin-1-yl)pyrimidin-4-yl]-3-methyl-1,2,3,4-tetrahydroisoquinolin-7-yl}pyridin-2-yl)carbonyl]azetidine-3-carbonitrile]
25 | 85 | CC1Cc2ccc(-c3ccc(C(=O)N4CC[C@@H](O)C4)nc3)cc2CN1c1cc(N2CCN(C)CC2)nc(N)n1 (single isomer, unassigned) [Example 56A]
26 | 35 | CC1Cc2ccc(-c3cnn(C4CCOCC4)c3)cc2CN1c1cc(N2CCN(C)CC2)nc(N)n1 (single isomer, unassigned) [Example 95A, 4-(4-methylpiperazin-1-yl)-6-[3-methyl-7-[1-(tetrahydro-2H-pyran-4-yl)-1H-pyrazol-4-yl]-3,4-dihydroisoquinolin-2(1H)-yl]pyrimidin-2-amine]
27 | 110 | CC1Cc2ccc(-c3ccnc(C(=O)N(C)C)c3)cc2CN1c1cc(N2CCN(C)CC2)nc(N)n1 (single isomer, unassigned) [Example 61A, 4-{2-[2-amino-6-(4-methylpiperazin-1-yl)pyrimidin-4-yl]-3-methyl-1,2,3,4-tetrahydroisoquinolin-7-yl}-N,N-dimethylpyridine-2-carboxamide]
28 | 231 | CCn1ccc(-c2ccc3c(c2)CN(c2cc(N4CCN(C)CC4)nc(N)n2)C(C)C3)n1 (single isomer, unassigned) [Example 86B, 4-[7-(1-Ethyl-1H-pyrazol-3-yl)-3-methyl-3,4-dihydroisoquinolin-2(1H)-yl]-6-(4-methylpiperazin-1-yl)pyrimidin-2-amine]
